Assay results taken from patent US20220331286A1, “CANNABIS LIMITS CANCER STEM CELL GROWTH IN POORLY DIFF[…]” (The Regents of the University of California, priority 2021, published 2022).
Entries after “also recorded” stand apart in the source; their conditions may differ.

Tests used:
[1] = system: breast cancer cell lines; settings: not normal breast epithelium; cited from earlier work
[2] = system: Oral squamous carcinoma cells (OSCCs); test: Viable cell count (Trypan Blue) after treatment; format: cell-based, human; settings: for killing / decrease in cell numbers of OSCCs, in words: WIN 55,212-2 10, 25, 50, 100 μM, CDDP 50 μg/ml
Protocol: (§1) Oral squamous carcinoma cells (OSCCs) and oral squamous carcinoma stem cells (OSCSCs) were isolated from cancer patients with tongue tumors at UCLA. The cells were cultured in RPMI 1640 complete medium with 10% fetal bovine serum (FBS) 1.4% Antibiotic-Antimycotic, 1% sodium pyruvate, 1.4% non-essential amino acids, 1% L-glutamine, 0.2% gentamicin (Gemini Bio-Products, CA, USA), and 0.15% sodium bicarbonate (Fisher Scientific, PA, USA).
(§2) As shown in FIG. 1A-1E, OSCSCs are affected more by WIN 55,212-2 than OSCCs. Both OSCCs (oral squamous carcinoma cells) and OSCSCs (oral squamous carcinoma stem cells) were treated with various concentrations of WIN 55,212-2 (10, 25, 50, and 100 μM) and CDDP (50 μg/ml), and the cell numbers were determined after 24 hours of treatment.
(§3) RPMI 1640 (Gibco, Thermo Fisher Scientific, USA) complete medium with 10% fetal bovine serum (FBS) (Gemini Bio-Products, San Diego, Calif., USA), 1.4% of non-essential amino acid (Gibco, Thermo Fisher Scientific, USA), 1.4% sodium pyruvate (Gibco, Thermo Fisher Scientific, USA), 0,15% of sodium bicarbonate (Fisher Scientific, Waltham, Mass., USA) and 1% antibiotics/antimycotics (Gemini Bio-Products, San Diego, Calif., USA) was used for oral tumor culture. DMEM (Gibco, Thermo Fisher Scientific, USA) supplemented with 10% FBS and 1% antibiotics/antimycotics was used for pancreatic tumor cell culture. Oral squamous carcinoma cells (OSCCs) and oral squamous carcinoma stem cells (OSCSCs) were isolated from cancer patients with tongue tumor at UCLA. Human pancreatic cancer cell lines MIA PaCa-2 (MP2) and PL-12 were generously provided by Dr. Guido Eibl (UCLA David Geffen School of Medicine) and by Dr. Nicholas Cacalano (UCLA Jonsson Comprehensive Cancer Center), respectively. […] CDDP was purchased from Ronald Reagan UCLA Medical Center Pharmacy. […] TNF-α and IFN-γ were purchased from Peprotech (Rockyhill, N.J.).
(§4) The number of viable cells was counted under light microscope using Trypan Blue staining (Sigma, Mo., USA).

[3] = system: oral squamous carcinoma stem cells (OSCSCs); test: Viable cell count (Trypan Blue) after treatment; format: cell-based, human; settings: WIN 55,212-2 10, 25, 50, 100 μM, CDDP 50 μg/ml, 24 hours
Protocol: as §1, §2, §3, §4

[4] = system: PL-12 well-differentiated pancreatic tumor cells; test: Viable cell count (Trypan Blue) after treatment; format: cell-based, human; settings: for percent decrease in cell numbers of PL12, in words: various concentrations of WIN 55,212-2, CDDP 50 μg/ml
Excerpt: (§5) Six different pancreatic tumor cell lines each characterized at poorly, intermediate and well differentiated stages pathologically by other laboratories previously were used to determine phenotype, susceptibility to NK cell-mediated cytotoxicity and secretion of IFN-γ directly correlating with the differentiation stages of the tumors. […] Furthermore, the stage of differentiation of the tumors was correlated with sensitivity to NK cell mediated cytotoxicity in pancreatic tumor cells. […] Therefore, a direct correlation between augmented sensitivity to NK-mediated lysis and poor differentiation of pancreatic tumors was evident from these experiments. For the following experiments MP2 and PL12 were used as representative tumor types for poorly differentiated and well differentiated tumors respectively. Human pancreatic cancer cell line MIA PaCa-2 (MP2), was provided by Dr. Guido Eibl (UCLA David Geffen School of Medicine) and PL12 was provided by Dr. Nicholas Cacalano (UCLA Jonsson Comprehensive Cancer Center). MP2 tumors were cultured with DMEM in supplement with 10% FBS and 1% Penicillin-Streptomycin (Gemini Bio-Products, CA). PL12 pancreatic tumors were cultured in RMPI 1640 medium supplemented with 10% FBS and 1% penicillin-streptomycin.
as §3, §4

[5] = system: Oral squamous carcinoma cells (OSCCs); test: Cell death by propidium iodide staining and flow cytometry; format: cell-based, human; settings: 24 hours
Protocol: (§6) After an overnight incubation the cells were washed twice and stained with propidium iodide (PI) at a concentration of 3 μg/ml. Flow cytometric analysis was performed using Attune flow cytometer results were analyzed using FlowJo vX software (Ashland, Oreg.).

[6] = system: PL-12 well-differentiated pancreatic tumor cells; test: as above; format: cell-based, human
Excerpt: (§7) Propidium iodide (PI) staining was used to determine the cell death by flow cytometry.

[7] = system: Oral squamous carcinoma cells (OSCCs); test: Microscopy of cell morphology and viability; format: cell-based, human
[8] = system: oral squamous carcinoma stem cells (OSCSCs); test: Microscopy of cell morphology and viability; format: cell-based, human; settings: WIN 55,212-2 even at the lowest concentrations; CDDP 50 μg/mL; 24 h
[9] = system: PL-12 well-differentiated pancreatic tumor cells; test: Microscopy of cell morphology and viability; format: cell-based, human; settings: different concentrations of WIN 55,212-2; CDDP 50 μg/mL; 24 hours
[10] = system: MIA PaCa-2 (MP2) poorly differentiated/stem like pancreatic tumor cells; test: Microscopy of cell morphology and viability; format: cell-based, human; settings: different concentrations of WIN 55,212-2; CDDP 50 μg/mL; 24 hours
[11] = system: MIA PaCa-2 (MP2) poorly differentiated/stem like pancreatic tumor cells; test: Viable cell count (Trypan Blue) after treatment; format: cell-based, human
Excerpt: as §5, §3, §4

[12] = system: oral squamous carcinoma stem cells (OSCSCs); test: Cell death by propidium iodide staining and flow cytometry; format: cell-based, human
Protocol: as §6

[13] = system: MIA PaCa-2 (MP2) poorly differentiated/stem like pancreatic tumor cells; test: as above; format: cell-based, human
Excerpt: as §7

[14] = system: tumor; test: Cytostatic effect: tumor-cell coverage of the well-plate (FIG. 2); format: cell-based; settings: at higher concentrations (FIG. 2)
Excerpt: In FIG. 2, the cystostatic effect of WIN 55,212-2 are shown.

[15] = system: Oral squamous carcinoma cells (OSCCs)
[16] = system: oral squamous carcinoma stem cells (OSCSCs)
[17] = system: PL-12 well-differentiated pancreatic tumor cells; settings: WIN 55,212-2, 48 h; mesylate
[18] = system: MIA PaCa-2 (MP2) poorly differentiated/stem like pancreatic tumor cells
[19] = system: mouse models of breast cancer, non-small cell lung cancer, and non-melanoma skin cancer; settings: cited from earlier work
[20] = WIN 55,212-2 50 μM or higher, CDDP 50 μg/mL, 24 h
[21] = different concentrations of WIN 55,212-2, dose-dependent, 24-48 hours
[22] = WIN 55,212-2 25-100 μM, 24-48 hours
[23] = WIN 55,212-2 (5-50 μM), 24 hours, vs untreated control, mesylate
[24] = various concentrations of WIN 55,212-2, 24 hours and 48 hours (FIG. 4A-4B)
[25] = WIN 55,212-2 (5-50 μM), 24 hours, mesylate

For `C=C(C)[C@@H]1CCC(C)=C[C@H]1c1c(O)cc(CCCCC)cc1O` [CBD, Cannabidiol], the “effect on radiotherapy / anti-proliferative effects of radiation” value [1] is listed as “failed to enhance anti-proliferative effects of radiation”.

With `N.N.[Cl][Pt][Cl]` [CDDP, cis-diaminedichloridoplatinum (II)] the “inhibition of cell growth, OSCCs compared with OSCSCs” value ([2]; CDDP 50 μg/mL, 24 h) was “inhibit cell growth of OSCCs more than those seen with OSCSCs”, the “killing / decrease in cell numbers of OSCCs, in words” value ([2]; 24 hours) was “killed significantly; also recorded: greater decreases in cell numbers” and the “killing / decrease in cell numbers of OSCSCs, in words” value [3] was “not killed”. For the same molecule, the “percent decrease in cell numbers of PL12, in words” value [4] was “greater decrease in cell numbers”, the “cell death in OSCCs compared with OSCSCs (PI staining)” value ([5]; CDDP 50 μg/mL) was “significant cell death in OSCCs when compared to OSCSCs; also recorded: more cell death in OSCCs when compared to OSCSCs” and the “cell death in PL-12 compared with MP2 (PI staining)” value ([6]; CDDP 50 μg/mL) was “higher in PL-12 in the representative experiment (FIG. 16B) and similar in compiled data”. The “morphology/viability of OSCCs under the microscope” value (“morphology/viability of OSCCs” below) [7, 20] was “loss of morphology, and the majority were detached from the plates”, the “morphology/attachment of OSCSCs under the microscope” value [8] was “the majority of these cells were still attached to the cell culture plate” and the “morphology/viability of PL-12 under the microscope” value [9] was “affected both PL-12 and MP2 morphologically”. The “morphology/viability of MP2 under the microscope” value [10] was “affected both PL-12 and MP2 morphologically”.

In the case of `CCCCCc1cc(O)c2c(c1)OC(C)(C)[C@@H]1CCC(C)=C[C@@H]21` [THC, Tetrahydrocannabinol], the “effect on radiotherapy / anti-proliferative effects of radiation” value [1] is listed as “failed to enhance anti-proliferative effects of radiation”.

With `CS(=O)(=O)O.Cc1c(C(=O)c2cccc3ccccc23)c2cccc3c2n1[C@H](CN1CCOCC1)CO3` [WIN 55,212-2, (R)-(+)-[2,3-Dihydro-5-methyl-3-(4-morpholinylmethyl)pyrrolo[1,2,3-de]-1,4-benzoxazin-6-yl]-1-naphthalenylmethanone mesylate] the “killing / decrease in cell numbers of OSCCs, in words” value ([2]; 24 hours, mesylate) was “much less; also recorded: smaller decrease in cell numbers”, the “decrease in cell numbers of OSCC (viable cells)” value ([2]; WIN 55,212-2 10-100 μM, 24 hours) was 10-25% and the “killing / decrease in cell numbers of OSCSCs, in words” value ([3]; mesylate) was “significantly killed; also recorded: significantly greater than OSCCs”. For the same molecule, the “decreased numbers of viable cells, MP2” value [11, 21] was 60-85%, the “percent decrease in cell numbers of MP2s, in words” value ([11]; various concentrations of WIN 55,212-2) was “significantly greater than PL12s” and the “decreased numbers of viable cells, PL-12” value [4, 21] was 50-70%. For the same molecule, the “percent decrease in cell numbers of PL12, in words” value [4] was “smaller decreases in cell numbers”, the “cell death in OSCCs (PI staining)” value ([5]; WIN 55,212-2 75 and 100 μM) was “up to 10%” and the “amounts of cell death in OSCSCs compared with those induced by CDDP” value ([12]; WIN 55,212-2 25-100 μM, compiled data) was “either similar or higher when compared to those induced by CDDP”. The “cell death in OSCSCs compared with OSCCs (PI staining)” value ([12]; all WIN 55,212-2 concentrations tested, 24 hours, mesylate) was “higher cell death”, the “percentages of dead cells, MP2 (PI staining)” value [13, 22] was “approximately 30%” and the “increase in cell death in MP2s compared with PL12 (PI staining)” value ([13]; various concentrations of WIN 55,212-2, 48 hours) was “greater higher increase in cell death”. For the same molecule, the “percentages of dead cells, PL-12 (PI staining)” value [6, 22] was “up to 20%”, the “morphology/viability of OSCCs” value [7, 20] was “some of the OSCCs still remained viable but some rounded up and detached and were not viable” and the “morphology/viability of OSCCs” value ([7]; low concentrations of WIN 55,212-2, 24 h) was “remained viable”. For the same molecule, the “morphology/attachment of OSCSCs under the microscope” value [8] was “became detached from the culture plates”, the “morphology/viability of PL-12 under the microscope” value [9] was “maintained their morphology and remained viable” and the “morphology/viability of MP2 under the microscope” value [10] was “largely lost their shape and morphology, and had detached from the plates”. The “cytostatic effect (fold change of the tumor-cell coverage of the well-plate)” value [14] was “arrests the tumor growth”, the “CD44 cell surface expression, OSCCs” value [15, 23] was “Decreased expression” and the “CD54 cell surface expression, OSCCs” value [15, 23] was “Decreased expression”. The “MHC class I cell surface expression, OSCCs” value [15, 23] was “Decreased expression”, the “PD-L1 (B7H1) cell surface expression, OSCCs” value [15, 23] was “Decreased expression” and the “MHC class I expression on the cell surface, OSCCs” value [15, 24] was “decreases in MHC class I expression”. For the same molecule, the “CD44 cell surface expression, OSCSCs” value [16, 25] was “decreased expressions”, the “CD54 cell surface expression, OSCSCs” value [16, 25] was “decreased expressions” and the “PD-L1 (B7H1) cell surface expression, OSCSCs” value [16, 25] was “decreased expressions”. The “MHC class I expression on the cell surface, OSCSCs” value [16, 24] was “decreases in MHC class I expression”, the “CD44 cell surface expression, PL-12” value [17] was “decreased expressions; also recorded: Decreased cell surface expression” and the “CD54 cell surface expression, PL-12” value [17] was “decreased expressions; also recorded: decreased the expression”. For the same molecule, the “CD44 cell surface expression, MP2” value ([18]; WIN 55,212-2, 48 h, mesylate) was “decreased expressions; also recorded: Decreased cell surface expression”, the “CD54 cell surface expression, MP2” value ([18]; WIN 55,212-2, 48 h, mesylate) was “decreased expressions; also recorded: decreased the expression” and the “MHC class I cell surface expression, MP2” value ([18]; WIN 55,212-2, 48 h, mesylate) was “decreased expressions; also recorded: decreased on MP2”. The “PD-L1 (B7H1) cell surface expression, MP2” value ([18]; WIN 55,212-2, 48 h, mesylate) was “decreased expressions; also recorded: decreased in MP2”, the “extent of decrease in all surface receptor expressions, MP2 compared with PL-12” value ([18]; WIN 55,212-2 treatments (FIG. 17F)) was “significantly greater than those seen in PL-12 tumor cells” and the “effect on radiotherapy / anti-proliferative effects of radiation” value [1] was “synergistically increased the effects of radiotherapy”. For the same molecule, the “tumor burden, lung metastasis and tumor induced angiogenesis in vivo” value [19] was “reduce tumor burden, lung metastasis and tumor induced angiogenesis”.

For `CCCCCCC(C)(C)c1cc(O)c2c(c1)OC(C)(C)C1CCC(=O)CC21` (centres unmarked) [nabilone], the “effect on radiotherapy / anti-proliferative effects of radiation” value [1] is given as “failed to enhance anti-proliferative effects of radiation”.
